Measured values taken from US8846750B2, “Pharmaceutical and food compositions for preventing or treating diabetes or obesity” (Korea Ocean Research and Development Institute, priority 2010, dated 2014).

How the values were obtained:
[1] = system: db/db mice (type 2 diabetic model animals); experiment: Change in blood glucose level after intraperitoneal administration; assay type: in vivo; conditions: 10 mg/kg intraperitoneally daily; for increase in the blood glucose level compared with control group: days 0-21; for average blood glucose level: db/db mice
Procedure: (§1) Based on pre-tests, effectiveness tests and toxicity tests for sodium lobarate, dose (expressed as test compound amount (mg)/test animal's weight (kg)) was determined. To 7-week-old male db/db mice (type 2 diabetic model animals, C57/BLKS/J-db/db, the Korea Research Institute of Bioscience and Biotechnology), 200 μl of PBS for a control group and 10 mg/kg of sodium lobarate (PTP-1b activity inhibitory compound) for a test group was administered, respectively, intraperitoneally daily, and the blood glucose levels of the animals were measured twice a week.
Specifically, sodium lobarate (PTP-1b activity inhibitory compound) was administered by intraperitoneal injection to 7-week-old male db/db mice (type 2 diabetic model animals, C57/BLKS/J-db/db, the Korea Research Institute of Bioscience and Biotechnology), and the change in the blood glucose level of the animals was measured.
as §1, with “Lobarin,” for “sodium lobarate,”, “Lobarin” for “sodium lobarate (PTP-1b activity inhibitory compound)”
Specifically, Lobarin was administered by intraperitoneal injection to 7-week-old male db/db mice (type 2 diabetic model animals, C57/BLKS/J-db/db, the Korea Research Institute of Bioscience and Biotechnology), and the change in blood glucose level of the animals was measured.
as §1, with “Lobarstin,” for “sodium lobarate,”, “Lobarstin” for “sodium lobarate (PTP-1b activity inhibitory compound)”
Specifically, Lobarstin was administered by intraperitoneal injection to 7-week-old male db/db mice (type 2 diabetic model animals, C57/BLKS/J-db/db, the Korea Research Institute of Bioscience and Biotechnology), and the change in blood glucose level of the animals was measured.

[2] = system: other protein tyrosine phosphatases (PTPN5, PTPN6, PTPN7, PTPN13); experiment: Selectivity for protein tyrosine phosphatases: other phosphatases of the panel; assay type: biochemical; conditions: for inhibitory activity against other protein tyrosine phosphatases: 0, 50, 100 or 200 nM tested; for selectivity among protein tyrosine phosphatases: PTP-1b, PTPN2, PTPN5, PTPN6, PTPN7 and PTPN13
Procedure: In order to examine the selectivity of sodium lobarate for protein tyrosine phosphatases, the inhibitory activities of sodium lobarate against PTP-1b, PTPN2, PTPN5, PTPN6, PTPN7 and PTPN13 were examined by spectroscopically measuring the activities of the enzymes.
(§2) Specifically, to 0.5 mg/Ml of PTP-1b, PTPN2, PTPN5, PTPN6, PTPN7 or PTPN13 (Bioneer, Korea) in protein tyrosine phosphatase buffer (20 mM Tris-Hcl, pH 8.0, 0.75 mM NaCl, 0.5 mM EDTA, 5 mM β-mercaptoethanol, 50% glycerol), 0, 50, 100 or 200 nM sodium lobarate and the substrate [pTyr1146] insulin receptor (1142-1153, Sigma, USA) were added. Then, each of the mixtures was allowed to react at room temperature for 10-30 minutes, and then malachite green-molybdate dye solution (Sigma, USA) was added thereto and reacted at room temperature for 10 minutes. After completion of the reaction with the substrate, the absorbance at 620 nm was measured.
In order to examine the selectivity of Lobarin for protein tyrosine phosphatases, the inhibitory activities of Lobarin against PTP-1b, PTPN2, PTPN5, PTPN6, PTPN7 and PTPN13 were examined by spectroscopically measuring the activities of the enzymes.
as §2, with “Lobarin” for “sodium lobarate”
as §2, with “In order to examine the selectivity of Lobarstin for protein tyrosine phosphatases, the inhibitory activities of Lobarstin against PTP-1b, PTPN2, PTPN5, PTPN6, PTPN7 and PTPN13 were examined by spectroscopically measuring the activities of the enzymes. Specifically,” for “Specifically,”, “Lobarstin” for “sodium lobarate”

| SMILES | increase in the blood glucose level compared with control group [1] | average blood glucose level ([1]; day 0) [mg/dL] | average blood glucose level ([1]; day 3) [mg/dL] | average blood glucose level ([1]; day 7) [mg/dL] | average blood glucose level ([1]; day 10) [mg/dL] | average blood glucose level ([1]; day 14) [mg/dL] | average blood glucose level ([1]; day 17) [mg/dL] | average blood glucose level ([1]; day 21) [mg/dL] | inhibitory activity against other protein tyrosine phosphatases [2] | selectivity among protein tyrosine phosphatases [2] |
| --- | --- | --- | --- | --- | --- | --- | --- | --- | --- | --- |
| CCCCCc1c(Oc2cc(OC)cc3c2C(=O)OC3(O)CCCC)c(O)cc(O)c1C(=O)O (centres unmarked) [Lobarin] | less than that in the control group | 267 | 278 | 298 | 315 | 352 | 379 | 425 | no inhibitory activity | acts selectively only on PTP-1b |
| CCCCCc1c2c(cc(O)c1C(=O)[O-])OC(=O)c1c(cc(OC)cc1C(=O)CCCC)O2.[Na+] [sodium lobarate] | less than that in the control group | 267 | 276 | 378 | 378 | 407 | 415 | 459 | – | acts selectively only on PTP-1b |
| CCC/C=C1/OC(=O)c2c(Oc3c(O)cc(O)c(C(=O)O)c3CCCCC)cc(OC)cc21 [Lobarstin] | less than that in the control group | 299 | – | 259 | – | 267 | – | 242 | no inhibitory activity | acts selectively only on PTP-1b |
